In patent US20230416205A1, “COMPOUNDS, COMPOSITIONS, AND METHODS” (Denali Therapeutics Inc, priority 2020, published 2023):
Where two headings read alike, the source gives them in different places.

System: NLRP3
Assay: IL-1β secretion assay in PMA-differentiated, LPS/nigericin-stimulated THP-1 cells (384-well, ELISA read-out)
Assay type: cell-based, human
Procedure, shortened: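 THP-1 cells differentiated with PMA (5 ng/mL, 40 h), primed in serum-free medium with 25 ng/mL LPS for 2 h, treated with compounds 1 h (0.5% DMSO), then stimulated with nigericin for 2 h at 37 °C. Supernatant IL-1β measured by ELISA; responses normalized to LPS+5 μM nigericin and LPS-only controls.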

[1] = IL-1β secretion, PMA-differentiated THP-1 cells, LPS then nigericin stimulation, ELISA read at 450 nm, read-out: Activity
[2] = Table 4, IL-1β secretion, LPS/nigericin-stimulated THP-1 cells, read-out: IC50
[3] = Homo sapiens, THP-1, IL-1β secretion, PMA-differentiated THP-1 cells, LPS then nigericin stimulation, ELISA read at 450 nm, read-out: Activity
[4] = Homo sapiens, THP-1, Table 4, IL-1β secretion, LPS/nigericin-stimulated THP-1 cells, read-out: IC50

Compound: O=C(CN1C[C@@]2(C[C@@H]2F)c2cc(C(F)(F)F)ccc2C1=O)Nc1ncc(Cl)cn1 (single isomer, unassigned) [Example 239, N-(5-chloropyrimidin-2-yl)-2-[(2′s,4r)-2′-fluoro-1-oxo-6-(trifluoromethyl)spiro[3H-isoquinoline-4,1′-cyclopropane]-2-yl]acetamide]
- IC50 [1]: < 10 µM
- IC50 [2]: 0.037 µM

Compound: O=C(CN1C[C@@]2(C[C@@H]2F)c2cc(Br)cc(F)c2C1=O)Nc1ncc(F)cn1 (mixture of isomers) [Example 285, 2-[(2′s,4r)-6-bromo-2′,8-difluoro-1-oxospiro[3H-isoquinoline-4,1′-cyclopropane]-2-yl]-N-(5-fluoropyrimidin-2-yl)acetamide]
- IC50 [3]: < 10 µM
- IC50 [4]: 0.165 µM

Compound: O=C(CN1CC2(CC2)c2cc(Br)ccc2C1=O)Nc1ncccn1 [Example 5]
- IC50 [3]: < 10 µM
- IC50 [4]: 0.216 µM

Compound: O=C(CN1C[C@]2(C[C@H]2F)c2cc(Br)ccc2C1=O)Nc1ncccn1 [Example 109]
- IC50 [3]: < 10 µM
- IC50 [4]: 0.036 µM

Compound: O=C(CN1CC2(CC2)c2cc(I)ccc2C1=O)Nc1ncc(F)cn1 [Example 90, N-(5-fluoropyrimidin-2-yl)-2-(6-iodo-1-oxospiro[3H-isoquinoline-4,1′-cyclopropane]-2-yl)acetamide]
- IC50 [3]: < 10 µM
- IC50 [4]: 0.034 µM

Compound: CC(C)(C#N)NC(=O)CN1CC2(CC2)c2cc(Br)ccc2C1=O [Example 134, 2-(6-bromo-1-oxospiro[3H-isoquinoline-4,1′-cyclopropane]-2-yl)-N-(2-cyanopropan-2-yl)acetamide]
- IC50 [3]: > 15 µM

Compound: CN1CCC[C@@H](NC(=O)CN2CC3(CC3)c3cc(Br)ccc3C2=O)C1 [Example 360, 2-(6-bromo-1-oxospiro[3H-isoquinoline-4,1′-cyclopropane]-2-yl)-N-[(3R)-1-methylpiperidin-3-yl]acetamide]
- IC50 [4]: 3.46 µM

Compound: O=C(CN1CC2(CC2)c2cc(Br)ccc2C1=O)Nc1ccc2[nH]nnc2c1 [Example 167, N-(1H-benzotriazol-5-yl)-2-(6-bromo-1-oxospiro[3H-isoquinoline-4,1′-cyclopropane]-2-yl)acetamide]
- IC50 [3]: < 10 µM
- IC50 [4]: 0.146 µM

Compound: O=C(CN1CC2(CC2)c2cc(Br)ccc2C1=O)Nc1ccncc1F [Example 11]
- IC50 [3]: < 10 µM
- IC50 [4]: 0.531 µM

Compound: O=C(CN1CC2(CC2)c2cc(Br)ccc2C1=O)NCC(O)c1ccc(F)cc1 (stereo not drawn) [Example 132, 2-(6-bromo-1-oxospiro[3H-isoquinoline-4,1′-cyclopropane]-2-yl)-N-[2-(4-fluorophenyl)-2-hydroxyethyl]acetamide]
- IC50 [3]: > 15 µM
- IC50 [4]: 29.7 µM

Compound: O=C(CN1CC2(CC2(F)F)c2c(ccc(Br)c2F)C1=O)Nc1ncc(F)cn1 (single isomer, unassigned) [Example 289, N-(5-fluoropyrimidin-2-yl)-2-[6-bromo-1′,1′,5-trifluoro-1-oxospiro[3H-isoquinoline-4,2′-cyclopropane]-2-yl]acetamide]
- IC50 [1]: < 10 µM
- IC50 [2]: 0.027 µM

Compound: O=C(CN1CC2(CC2)c2c(ccc(C3C[C@@H]3F)c2F)C1=O)Nc1ncc(F)cn1 (single isomer, unassigned) [Example 305, 2-[5-fluoro-6-[(1r,2s)-2-fluorocyclopropyl]-1-oxospiro[3H-isoquinoline-4,1′-cyclopropane]-2-yl]-N-(5-fluoropyrimidin-2-yl)acetamide]
- IC50 [4]: 0.662 µM

Compound: CCOC(=O)N1CCC(NC(=O)CN2CC3(CC3)c3cc(Br)ccc3C2=O)CC1 [Example 378, ethyl 4-[[2-(6-bromo-1-oxospiro[3H-isoquinoline-4,1′-cyclopropane]-2-yl)acetyl]amino]piperidine-1-carboxylate]
- IC50 [4]: 4.98 µM

Compound: O=C(CN1CC2(CC2)c2cc(Br)ccc2C1=O)Nc1cccn2ccnc12 [Example 155, 2-(6-bromo-1-oxospiro[3H-isoquinoline-4,1′-cyclopropane]-2-yl)-N-imidazo[1,2-a]pyridin-8-ylacetamide]
- IC50 [3]: < 10 µM
- IC50 [4]: 3.61 µM

Compound: O=C(CN1CC2(CC2)c2cc(Br)ccc2C1=O)Nc1cc(C2CC2)n[nH]1 [Example 168, 2-(6-bromo-1-oxospiro[3H-isoquinoline-4,1′-cyclopropane]-2-yl)-N-(3-cyclopropyl-1H-pyrazol-5-yl)acetamide]
- IC50 [3]: < 10 µM
- IC50 [4]: 2.83 µM

Compound: O=C(CN1CC2(CC2)c2cc(Br)ccc2C1=O)Nc1ccc(F)cn1 [Example 208, 2-(6-bromo-1-oxospiro[3H-isoquinoline-4,1′-cyclopropane]-2-yl)-N-(5-fluoropyridin-2-yl)acetamide]
- IC50 [3]: < 10 µM
- IC50 [4]: 0.709 µM

Compound: Cn1nc(NC(=O)CN2CC3(CC3)c3cc(Br)ccc3C2=O)ccc1=O [Example 335, 2-(6-bromo-1-oxospiro[3H-isoquinoline-4,1′-cyclopropane]-2-yl)-N-(1-methyl-6-oxopyridazin-3-yl)acetamide]
- IC50 [4]: 2.08 µM

Compound: O=C(CN1CC2(CC2)c2cc(Br)ccc2C1=O)NC1CCCC(O)C1 (stereo not drawn) [Example 58, 2-(6-bromo-1-oxo-spiro[3H-isoquinoline-4,1′-cyclopropane]-2-yl)-N-(3-hydroxycyclohexyl)acetamide]
- IC50 [3]: < 10 µM
- IC50 [4]: 3.09 µM

Compound: CS(=O)(=O)NCCNC(=O)CN1CC2(CC2)c2cc(Br)ccc2C1=O [Example 137, 2-(6-bromo-1-oxospiro[3H-isoquinoline-4,1′-cyclopropane]-2-yl)-N-[2-(methanesulfonamido)ethyl]acetamide]
- IC50 [3]: > 15 µM
- IC50 [4]: 21.9 µM

Compound: O=C(CN1CC2(CC2)c2cc(Br)ccc2C1=O)Nc1ncn(CC(F)(F)F)n1 [Example 425, 2-(6-bromo-1-oxospiro[3H-isoquinoline-4,1′-cyclopropane]-2-yl)-N-[1-(2,2,2-trifluoroethyl)-1,2,4-triazol-3-yl]acetamide]
- IC50 [4]: 2.85 µM

Compound: Cc1cnc2ccc(NC(=O)CN3CC4(CC4)c4cc(Br)ccc4C3=O)nn12 [Example 399, 2-(6-bromo-1-oxospiro[3H-isoquinoline-4,1′-cyclopropane]-2-yl)-N-(3-methylimidazo[1,2-b]pyridazin-6-yl)acetamide]
- IC50 [4]: 1.35 µM

Compound: O=C(CN1CC2(CC2)c2cc(Br)ccc2C1=O)Nc1ccc2cnccc2c1 [Example 136, 2-(6-bromo-1-oxospiro[3H-isoquinoline-4,1′-cyclopropane]-2-yl)-N-isoquinolin-6-ylacetamide]
- IC50 [3]: < 10 µM

Compound: Cc1nc(NC(=O)CN2CC3(CC3)c3cc(Br)ccc3C2=O)ncc1C#N [Example 259, 2-(6-bromo-1-oxospiro[3H-isoquinoline-4,1′-cyclopropane]-2-yl)-N-(5-cyano-4-methylpyrimidin-2-yl)acetamide]
- IC50 [3]: < 10 µM
- IC50 [4]: 0.437 µM

Compound: O=C(CN1CC2(CC2)c2cc(Br)ccc2C1=O)Nc1ccc2cccnc2n1 [Example 199, 2-(6-bromo-1-oxospiro[3H-isoquinoline-4,1′-cyclopropane]-2-yl)-N-(1,8-naphthyridin-2-yl)acetamide]
- IC50 [3]: < 10 µM
- IC50 [4]: 1.37 µM

Compound: O=C(CN1C[C@@]2(C[C@@H]2F)c2c(ccc(C3CC3)c2F)C1=O)Nc1ncc(F)cn1 (single isomer, unassigned) [Example 228, 2-[(2′s,4r)-6-cyclopropyl-2′,5-difluoro-1-oxospiro[3H-isoquinoline-4,1′-cyclopropane]-2-yl]-N-(5-fluoropyrimidin-2-yl)acetamide]
- IC50 [3]: < 10 µM
- IC50 [4]: 0.021 µM

Compound: O=C(CN1CC2(CC2)c2cc(Br)ccc2C1=O)Nc1ncc(-c2ccccn2)cn1 [Example 104, 2-(6-bromo-1-oxospiro[3H-isoquinoline-4,1′-cyclopropane]-2-yl)-N-(5-pyridin-2-ylpyrimidin-2-yl)acetamide]
- IC50 [3]: < 10 µM
- IC50 [4]: 1.87 µM

Compound: O=C(CN1CC(C(F)(F)F)c2c(ccc(Br)c2F)C1=O)Nc1ncc(F)cn1 (single isomer, unassigned) [Example 298, 2-[6-bromo-5-fluoro-1-oxo-4-(trifluoromethyl)-3,4-dihydroisoquinolin-2-yl]-N-(5-fluoropyrimidin-2-yl)acetamide]
- IC50 [1]: < 10 µM
- IC50 [2]: 0.367 µM

Compound: CCc1cnc(NC(=O)CN2CC3(CC3)c3cc(Br)ccc3C2=O)nc1 [Example 204, 2-(6-bromo-1-oxospiro[3H-isoquinoline-4,1′-cyclopropane]-2-yl)-N-(5-ethylpyrimidin-2-yl)acetamide]
- IC50 [3]: < 10 µM
- IC50 [4]: 0.646 µM

Compound: O=C(CN1C[C@@]2(C[C@@H]2F)c2c(ccc(Cl)c2F)C1=O)Nc1ncc(F)cn1 (single isomer, unassigned) [Example 223, 2-[(2′s,4r)-6-chloro-2′,5-difluoro-1-oxospiro[3H-isoquinoline-4,1′-cyclopropane]-2-yl]-N-(5-fluoropyrimidin-2-yl)acetamide]
- IC50 [3]: < 10 µM
- IC50 [4]: 0.055 µM

Compound: O=C(CN1CC2(CC2)c2cc(Br)ccc2C1=O)NC1CCn2nccc2C1 (stereo not drawn) [Example 20]
- IC50 [3]: < 10 µM
- IC50 [4]: 3.19 µM

Compound: O=C(CN1CC2(CC2(F)F)c2c(ccc(Br)c2F)C1=O)Nc1ncc(F)cn1 (single isomer, unassigned) [Example 288, N-(5-fluoropyrimidin-2-yl)-2-[6-bromo-1′,1′,5-trifluoro-1-oxospiro[3H-isoquinoline-4,2′-cyclopropane]-2-yl]acetamide]
- IC50 [3]: 10 to 15 µM
- IC50 [2]: 15.4 µM

Compound: O=C(CN1CC(C(F)F)c2c(ccc(Br)c2F)C1=O)Nc1ncc(F)cn1 (single isomer, unassigned) [Example 295, 2-[6-bromo-4-(difluoromethyl)-5-fluoro-1-oxo-3,4-dihydroisoquinolin-2-yl]-N-(5-fluoropyrimidin-2-yl)acetamide]
- IC50 [3]: 10 to 15 µM
- IC50 [2]: 12.8 µM

Compound: CC1(C)CN=C(NC(=O)CN2CC3(CC3)c3cc(Br)ccc3C2=O)O1 [Example 353, 2-(6-bromo-1-oxospiro[3H-isoquinoline-4,1′-cyclopropane]-2-yl)-N-(5,5-dimethyl-4H-1,3-oxazol-2-yl)acetamide]
- IC50 [4]: 5.42 µM
